The source of these data is patent US7482346B2, “Derivatives of alkylpiperazine and alkylhomopiperazine-carboxylates, preparation method thereof and use of same as fatty acid amido hydrolase enzyme inhibitors” (Sanofi-Aventis, priority 2004, dated 2009).

The target in series [1] is T1, FAAH (fatty acid amide hydrolase) (Mus musculus, UniProt O08914).
T1 construct: Membrane homogenates are prepared at the time of use by homogenizing the tissues in a Polytron; from tissue; host or cells: mouse brain (minus the cerebellum), membrane homogenate
T1 sequence (O08914 1-579): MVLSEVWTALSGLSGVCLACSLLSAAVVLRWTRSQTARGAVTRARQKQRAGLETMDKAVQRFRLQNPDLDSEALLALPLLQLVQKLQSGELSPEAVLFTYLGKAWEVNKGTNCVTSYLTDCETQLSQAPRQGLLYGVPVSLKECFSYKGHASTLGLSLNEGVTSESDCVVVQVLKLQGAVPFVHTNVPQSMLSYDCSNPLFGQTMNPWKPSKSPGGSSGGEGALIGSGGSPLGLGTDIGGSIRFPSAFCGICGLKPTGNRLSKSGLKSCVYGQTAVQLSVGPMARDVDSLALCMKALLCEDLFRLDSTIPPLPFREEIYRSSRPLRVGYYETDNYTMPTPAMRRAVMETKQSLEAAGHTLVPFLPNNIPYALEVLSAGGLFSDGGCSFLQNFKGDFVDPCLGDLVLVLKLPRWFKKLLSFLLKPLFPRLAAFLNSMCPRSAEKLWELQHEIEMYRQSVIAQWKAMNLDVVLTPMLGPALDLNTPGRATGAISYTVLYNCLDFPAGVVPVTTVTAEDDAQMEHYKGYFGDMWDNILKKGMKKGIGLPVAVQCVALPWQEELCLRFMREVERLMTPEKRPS
The series is described as follows: radio-enzymatic assay of FAAH inhibition (hydrolysis of anandamide [1-3H ethanolamine]). The format is biochemical. The conditions noted are these: mouse brain membrane homogenates; anandamide [1-3H ethanolamine] 10 μM; 15 minutes at 25° C.; read-out: IC50 (concentration inhibiting by 50% the control enzyme activity of FAAH). How it is done: The compounds of the invention were subjected to pharmacological tests permitting determination of their inhibitory effect on the enzyme FAAH (fatty acid amide hydrolase).
Accordingly, mouse brains (minus the cerebellum) are removed and stored at −80° C. Membrane homogenates are prepared at the time of use by homogenizing the tissues in a Polytron in a 10 mM Tris-HCl buffer (pH 8) containing 150 mM NaCl and 1 mM EDTA. The enzyme reaction is subsequently conducted in 70 μl of buffer containing bovine serum albumin without fatty acids (1 mg/ml). In succession, the test compounds, at various concentrations, anandamide [1-^3H ethanolamine] (specific activity: 15-20 Ci/mmol) diluted to 10 μM with cold anandamide, and the membrane preparation (400 μg of frozen tissue per assay) are added. After 15 minutes at 25° C. the enzyme reaction is terminated by adding 140 μl of chloroform/methanol (2:1). The mixture is stirred for 10 minutes and then centrifuged for 15 minutes at 3500 g. An aliquot (30 μl) of the aqueous phase containing the 1-^3H ethanolamine is counted by liquid scintillation.

Series [2] deals with male OFI mice. The experiment in a line: analgesia test: abdominal stretches induced by PBQ (phenylbenzoquinone). Type of series: in vivo, mouse. The conditions noted are these: dose of 10 mg/kg at 120 minutes, PBQ 2 mg/kg i.p. The protocol: The in vivo activity of the compounds of the invention was evaluated in an analgesia test.
Accordingly, intraperitoneal (i.p.) administration of PBQ (phenylbenzoquinone, 2 mg/kg in a 0.9% sodium chloride solution containing 5% of ethanol) to male OFI mice weighing 25 to 30 g causes abdominal stretches, on average 30 twists or contractions during the period from 5 to 15 minutes after injection. The test compounds are administered orally (p.o.) or intraperitoneally (i.p.) in suspension in Tween 80 at 0.5%, 60 minutes or 120 minutes before the administration of PBQ. […] For example, compounds 49 and 69 of the table reduce by 43% and 47% respectively, the number of stretches induced by PBQ, at a dose of 10 mg/kg at 120 minutes.

pIC50: −log10 of the molar value. Where a name gives a salt, the structure may show the parent alone.

A word on the melting point: it is the temperature of the solid-liquid transition. As to `CNC(=O)COC(=O)N1CCN(C(C)(C)CCc2cccc(-c3ccccc3)c2)CC1` (as salt: HCl) [Compound 50, 2-(methylamino)-2-oxoethyl 4-(3-biphenyl-3-yl-1,1-dimethylpropyl)piperazine-1-carboxylate hydrochloride], the melting point was 212 to 216 °C (dec.).
Turning to `CNC(=O)COC(=O)N1CCN(CCc2cccc3ccccc23)CC1` [Compound 21, 2-(methylamino)-2-oxoethyl 4-[2-(1-naphthyl)ethyl]piperazine-1-carboxylate], the pIC50 in series [1] was 7.14.
Molecule `CNC(=O)COC(=O)N1CCN(CCc2ccc3ccccc3c2)CC1` [Compound 25, 2-(methylamino)-2-oxoethyl 4-(2-naphthalen-2-ylethyl)piperazine-1-carboxylate] registered a melting point of 133 to 135 °C.
In the case of `CNC(=O)COC(=O)N1CCN(CCc2cc(-c3ccc(Cl)cc3)no2)CC1` [Compound 29, 2-(methylamino)-2-oxoethyl 4-{2-[3-(4-chlorophenyl)isoxazol-5-yl]ethyl}piperazine-1-carboxylate], the melting point was 130 to 132 °C.
Consider `CNC(=O)COC(=O)N1CCN(CCCc2cccc(-c3ccccc3)c2)CC1` [Compound 48, 2-(methylamino)-2-oxoethyl 4-(3-biphenyl-3-ylpropyl)piperazine-1-carboxylate], for which, in series [1], the pIC50 was 7.30.
With `CNC(=O)COC(=O)N1CCN(CCCc2ccc(-c3ccccc3)cc2)CC1` [Compound 49, 2-(methylamino)-2-oxoethyl 4-(3-biphenyl-4-ylpropyl)piperazine-1-carboxylate], in series [2], the “reduction of the number of stretches induced by PBQ” value was found to be 43%. The pIC50 in series [1] is 7.49.
`CNC(=O)COC(=O)N1CCN(CCCc2cccc(-c3cccc(Cl)c3)c2)CC1` [Compound 52, 2-(methylamino)-2-oxoethyl 4-[3-(3′-chlorobiphenyl-3-yl)propyl]piperazine-1-carboxylate] displayed a melting point of 82 to 85 °C.
As for `CNC(=O)COC(=O)N1CCN(CCCc2cc(-c3ccc(Cl)cc3)no2)CC1` [Compound 69, 2-(methylamino)-2-oxoethyl 4-{3-[3-(4-chlorophenyl)isoxazol-5-yl]propyl}piperazine-1-carboxylate], the “reduction of the number of stretches induced by PBQ” value in series [2] turned out to be 47%.
On to `CNC(=O)COC(=O)N1CCN(C/C=C/c2ccccc2)CC1` [Compound 85, 2-(methylamino)-2-oxoethyl trans-4-(3-phenylprop-2-en-1-yl)piperazine-1-carboxylate], for which the melting point is 109 to 111 °C.
For `NC(=O)COC(=O)N1CCCN(CC#Cc2cccc(C(F)(F)F)c2)CC1` [Compound 99, 2-amino-2-oxoethyl 4-{3-[3-(trifluoromethyl)phenyl]prop-2-yn-1-yl}-1,4-diazepane-1-carboxylate], the melting point lay in the range of 102 to 104 °C.
In turn, `CNC(=O)COC(=O)N1CCN(CCOc2ccc(Cl)cc2)CC1` [Compound 130, 2-(methylamino)-2-oxoethyl 4-{2-[(4-chlorophenyl)oxy]ethyl}piperazine-1-carboxylate] yielded a melting point of 159 to 161 °C.
